# Assay results from patent US7632972B2, “Compounds and methods for treatment of cancer and modulation of programmed cell death for melanoma and other cancer cells” (The Board of Trustees of the University of Illionis, priority 2003, dated 2009).
# Tests used:
# [1] = tested on: UO-31; experiment: NCI 60 cell line screen (SRB), Renal Cancer; assay type: cell-based, human
# Source text: (§1) The operation of this screen utilizes 60 different human tumor cell lines, representing leukemia, melanoma and cancers of the lung, colon, brain, ovary, breast, prostate, and kidney. The aim is to prioritize for further evaluation, synthetic compounds or natural product samples showing selective growth inhibition or cell killing of particular tumor cell lines. This screen is unique in that the complexity of a 60 cell line dose response produced by a given compound results in a biological response pattern which can be utilized in pattern recognition algorithms. Using these algorithms, it is possible to assign a putative mechanism of action to a test compound, or to determine that the response pattern is unique and not similar to that of any of the standard prototype compounds included in the NCl database (see DTP Overview tab). In addition, following characterization of various cellular molecular targets in the 60 cell lines, it may be possible to select compounds most likely to interact with a specific molecular target.
# (§2) The human tumor cell lines of the cancer screening panel are grown in RPMI 1640 medium containing 5% fetal bovine serum and 2 mM L-glutamine. For a typical screening experiment, cells are inoculated into 96 well microtiter plates in 100 μL at plating densities ranging from 5,000 to 40,000 cells/well depending on the doubling time of individual cell lines. After cell inoculation, the microtiter plates are incubated at 37° C., 5% CO2, 95% air and 100% relative humidity for 24 h prior to addition of experimental drugs.
# (§3) After 24 h, two plates of each cell line are fixed in situ with TCA, to represent a measurement of the cell population for each cell line at the time of drug addition (Tz). Experimental drugs are solubilized in dimethyl sulfoxide at 400-fold the desired final maximum test concentration and stored frozen prior to use. At the time of drug addition, an aliquot of frozen concentrate is thawed and diluted to twice the desired final maximum test concentration with complete medium containing 50 μg/ml gentamicin. Additional four, 10-fold or ½ log serial dilutions are made to provide a total of five drug concentrations plus control. Aliquots of 100 μl of these different drug dilutions are added to the appropriate microtiter wells already containing 100 μl of medium, resulting in the required final drug concentrations.
# (§4) Following drug addition, the plates are incubated for an additional 48 h at 37° C., 5% CO2, 95% air, and 100% relative humidity. For adherent cells, the assay is terminated by the addition of cold TCA. Cells are fixed in situ by the gentle addition of 50 μl of cold 50% (w/v) TCA (final concentration, 10% TCA) and incubated for 60 minutes at 4° C. The supernatant is discarded, and the plates are washed five times with tap water and air dried. Sulforhodamine B (SRB) solution (100 μl) at 0.4% (w/v) in 1% acetic acid is added to each well, and plates are incubated for 10 minutes at room temperature. After staining, unbound dye is removed by washing five times with 1% acetic acid and the plates are air dried. Bound stain is subsequently solubilized with 10 mM trizma base, and the absorbance is read on an automated plate reader at a wavelength of 515 nm. For suspension cells, the methodology is the same except that the assay is terminated by fixing settled cells at the bottom of the wells by gently adding 50 μl of 80% TCA (final concentration, 16% TCA). Using the seven absorbance measurements [time zero, (Tz), control growth, (C), and test growth in the presence of drug at the five concentration levels (Ti)], the percentage growth is calculated at each of the drug concentrations levels. Percentage growth inhibition is calculated as: [(Ti−Tz)/(C−Tz)]×100 for concentrations for which Ti>/=Tz [(Ti−Tz)/Tz]×100 for concentrations for which Ti<Tz.
# (§5) Three dose response parameters are calculated for each experimental agent. […]
# [2] = tested on: 786-0; experiment: NCI 60 cell line screen (SRB), Renal Cancer; assay type: cell-based, human
# Source text: as §1, §2, §3, §4, §5
# [3] = tested on: TK-10; experiment: NCI 60 cell line screen (SRB), Renal Cancer; assay type: cell-based, human
# Source text: as §1, §2, §3, §4, §5
# [4] = tested on: ACHN; experiment: NCI 60 cell line screen (SRB), Renal Cancer; assay type: cell-based, human
# Source text: as §1, §2, §3, §4, §5
# [5] = tested on: SN12C; experiment: NCI 60 cell line screen (SRB), Renal Cancer; assay type: cell-based, human
# Source text: as §1, §2, §3, §4, §5
# [6] = tested on: PC-3; experiment: NCI 60 cell line screen (SRB), Prostate Cancer; assay type: cell-based, human
# Source text: as §1, §2, §3, §4, §5
# [7] = tested on: DU-145; experiment: NCI 60 cell line screen (SRB), Prostate Cancer; assay type: cell-based, human
# Source text: as §1, §2, §3, §4, §5
# [8] = tested on: MOLT-4; experiment: NCI 60 cell line screen (SRB), Leukemia; assay type: cell-based, human
# Source text: as §1, §2, §3, §4, §5
# [9] = tested on: RPMI-8226; experiment: NCI 60 cell line screen (SRB), Leukemia; assay type: cell-based, human
# Source text: as §1, §2, §3, §4, §5
# [10] = tested on: HL-60(TB)
# [11] = read-out: LC50 (the source's name)
structure (smiles),measurement,setting,value
COc1cccc(CCNC(=O)CC(c2ccccc2)(c2ccccc2)c2ccccc2)c1 [Compound Z3],GI50,[1]; UO-31,4.75 µM
same,TGI,[1]; UO-31,>1.00E−04
same,Percent Growth,"[1]; UO-31, Log10 Concentration −4.0",20%
same,Percent Growth,"[1]; UO-31, Log10 Concentration −5.0",33%
same,Percent Growth,"[1]; UO-31, Log10 Concentration −6.0",85%
same,Percent Growth,"[1]; UO-31, Log10 Concentration −7.0",98%
same,Percent Growth,"[1]; UO-31, Log10 Concentration −8.0",86%
same,CC50,"[1]; UO-31, read-out: LC50 (the source's name)",> 100 µM
same,GI50,[2]; 786-0,10.6 µM
same,TGI,[2]; 786-0,>1.00E−04
same,Percent Growth,"[2]; 786-0, Log10 Concentration −4.0",7%
same,Percent Growth,"[2]; 786-0, Log10 Concentration −5.0",51%
same,Percent Growth,"[2]; 786-0, Log10 Concentration −6.0",86%
same,Percent Growth,"[2]; 786-0, Log10 Concentration −7.0",98%
same,Percent Growth,"[2]; 786-0, Log10 Concentration −8.0",86%
same,CC50,"[2]; 786-0, read-out: LC50 (the source's name)",> 100 µM
same,GI50,[3]; TK-10,21.9 µM
same,TGI,[3]; TK-10,8.22E−05
same,Percent Growth,"[3]; TK-10, Log10 Concentration −4.0",−7%
same,Percent Growth,"[3]; TK-10, Log10 Concentration −5.0",80%
same,Percent Growth,"[3]; TK-10, Log10 Concentration −6.0",133%
same,Percent Growth,"[3]; TK-10, Log10 Concentration −7.0",128%
same,Percent Growth,"[3]; TK-10, Log10 Concentration −8.0",117%
same,CC50,"[3]; TK-10, read-out: LC50 (the source's name)",> 100 µM
same,GI50,[4],7.84 µM
same,TGI,[4],9.48E−05
same,Percent Growth,[4]; Log10 Concentration −4.0,−1%
same,Percent Growth,[4]; Log10 Concentration −5.0,45%
same,Percent Growth,[4]; Log10 Concentration −6.0,94%
same,Percent Growth,[4]; Log10 Concentration −7.0,112%
same,Percent Growth,[4]; Log10 Concentration −8.0,102%
same,CC50,[4]; [11],> 100 µM
same,Percent Growth,[5]; Log10 Concentration −4.0,217%
same,Percent Growth,[5]; Log10 Concentration −5.0,−14%
same,Percent Growth,[5]; Log10 Concentration −6.0,51%
same,Percent Growth,[5]; Log10 Concentration −7.0,84%
same,Percent Growth,[5]; Log10 Concentration −8.0,87%
same,CC50,[5]; [11],> 100 µM
same,GI50,[6]; PC-3,6.12 µM
same,TGI,[6]; PC-3,>1.00E−04
same,Percent Growth,"[6]; PC-3, Log10 Concentration −4.0",12%
same,Percent Growth,"[6]; PC-3, Log10 Concentration −5.0",39%
same,Percent Growth,"[6]; PC-3, Log10 Concentration −6.0",90%
same,Percent Growth,"[6]; PC-3, Log10 Concentration −7.0",96%
same,Percent Growth,"[6]; PC-3, Log10 Concentration −8.0",100%
same,CC50,"[6]; PC-3, read-out: LC50 (the source's name)",> 100 µM
same,GI50,[7]; DU-145,26.8 µM
same,TGI,[7]; DU-145,>1.00E−04
same,Percent Growth,"[7]; DU-145, Log10 Concentration −4.0",31%
same,Percent Growth,"[7]; DU-145, Log10 Concentration −5.0",64%
same,Percent Growth,"[7]; DU-145, Log10 Concentration −6.0",88%
same,Percent Growth,"[7]; DU-145, Log10 Concentration −7.0",93%
same,Percent Growth,"[7]; DU-145, Log10 Concentration −8.0",88%
same,CC50,"[7]; DU-145, read-out: LC50 (the source's name)",> 100 µM
same,GI50,[8]; MOLT-4,6.01 µM
same,TGI,[8]; MOLT-4,>1.00E−04
same,Percent Growth,"[8]; MOLT-4, Log10 Concentration −4.0",33%
same,Percent Growth,"[8]; MOLT-4, Log10 Concentration −5.0",34%
same,Percent Growth,"[8]; MOLT-4, Log10 Concentration −6.0",107%
same,Percent Growth,"[8]; MOLT-4, Log10 Concentration −7.0",123%
same,Percent Growth,"[8]; MOLT-4, Log10 Concentration −8.0",116%
same,CC50,"[8]; MOLT-4, read-out: LC50 (the source's name)",> 100 µM
same,GI50,[9]; RPMI-8226,4.98 µM
same,TGI,[9]; RPMI-8226,>1.00E−04
same,Percent Growth,"[9]; RPMI-8226, Log10 Concentration −4.0",24%
same,Percent Growth,"[9]; RPMI-8226, Log10 Concentration −5.0",29%
same,Percent Growth,"[9]; RPMI-8226, Log10 Concentration −6.0",98%
same,Percent Growth,"[9]; RPMI-8226, Log10 Concentration −7.0",100%
same,Percent Growth,"[9]; RPMI-8226, Log10 Concentration −8.0",92%
same,CC50,"[9]; RPMI-8226, read-out: LC50 (the source's name)",> 100 µM
same,GI50,[10],17.5 µM
same,TGI,[10],>1.00E−04
same,CC50,[10]; read-out: LC50,> 100 µM
